# System: H460 cells
# Test: Cell-competition experiment: uptake of radiolabeled glutamic acid derivative into tumor cells
# Type: cell-based, human
# Conditions: competitor 1 mM and 0.1 mM, 30 min incubation in PBS
# Method: FIG. 7: Biological activity of (2S)-2-Amino-5-(4-cyano-3-fluorobenzyl)hexanedioic acid in a cell-competition-experiment (H460 cells, 30 min incubation with radiolabeled glutamic acid derivative in PBS-Puffer, concentration of competitor 1 mM and 0.1 mM).
# The ability of (2S)-2-Amino-5-(4-cyano-3-fluorobenzyl)hexanedioic acid to compete with uptake of glutamic acid derivatives into tumor cells was examined. Therefore, tumor cells were co-incubated with a radiolabeled glutamic acid derivative and (2S)-2-Amino-5-(4-cyano-3-fluorobenzyl)hexanedioic acid. This compounds was used in large excess to the tracer. Two concentrations were examined (1 mM an 0.1 mM).
smiles,measurement,value
N#Cc1ccc(CC(CC[C@H](N)C(=O)O)C(=O)O)cc1F (stereo partly drawn) [(2S)-2-Amino-5-(4-cyano-3-fluorobenzyl)hexanedioic acid],uptake of radiolabeled glutamic acid derivative into tumor cells (competition),strongly reduces the uptake
